{
  "source": "patent US20220339416A1",
  "about": "“SILK FIBROIN-BASED MICRONEEDLES AND USES THEREOF” (VAXESS TECHNOLOGIES, INC., priority 2019, published 2022)",
  "key": {"[1]": {"system": "B16-F10 mouse melanoma tumor", "experiment": "Daily vs single bolus intratumoral administration in B16-F10 mouse melanoma tumor model", "format": "in vivo", "conditions": "anti-PD1 mAb 100 ug i.p. Day 4 and 9", "text": "Mouse melanoma cells (B16-F10) are to be injected into the flank (right side) of mice (C57Bl/6) and a tumor is to be allowed to form. The agent will be administered intratumorally or peritumorally (i.e., intradermally or subcutaneously) either as: • 1. a single bolus, • 2. a series of fractional injections where the total dose given over the time frame is equivalent to the single bolus. These injections may be given daily or every other day. • 3. a silk microneedle patch formulated with the one or more therapeutic agents.\nTumor growth will be measured two to three times weekly. Animals will be euthanized when humane endpoints have been reached. These endpoints include weight loss >15%, body condition score <1, tumor volume >1 cm^3, tumor length (defined as the longest dimension) >1.5 cm, or tumor ulceration/necrosis. These humane endpoints apply to all in vivo experiments using the melanoma model.\nAccording to the methods outlined above, daily intratumoral administration was compared to single intratumoral bolus doses, with IL-2 or gemcitabine, using a B16-F10 mouse melanoma tumor model. For this study, two cycles of treatment were performed, including a bolus administration on Day 7 and on Day 21, and daily administration on Days 7-11 and Days 21-25. […] On Day 0, mice were inoculated by subcutaneous administration of B16-F10 cells. […]"}, "[2]": {"system": "CT26 colon carcinoma", "experiment": "Daily vs single bolus intratumoral administration in murine CT26 colon carcinoma model", "format": "in vivo, mouse", "conditions": "daily intratumoral 95 μg days 7-11 compared to single bolus 475 μg day 7; anti-PD1 mAb 100 μg i.p. day 4 and 9", "description": "Daily intratumoral administration compared to single intratumoral bolus doses was further investigated using gemcitabine in a murine CT26 colon carcinoma model (see FIG. 7A-7B). On day 0, mice were inoculated by subcutaneous administration of CT26 cells. On day 4 and day 9, mice were administered a dose of an anti-PD1 mAb (100 μg per dose) by intraperitoneal injection. Data was pooled from two experiments, with 10 mice per group.\nCT26 mice in the ‘single bolus dose’ group received a single bolus dose of gemcitabine (475 μg) (intratumoral) at day 7, and four doses of saline (intratumoral) for the next four days (FIG. 7A). CT26 mice in the ‘daily dose’ group received daily doses of gemcitabine (95 μg) (intratumoral) over days 7-11 (5 total doses) (FIG. 7B). Each daily doses was a fractional dose equivalent to approximately ⅕ of the single bolus dose."}},
  "data": [
    {"smiles": "Nc1ccn([C@@H]2O[C@H](CO)[C@@H](O)C2(F)F)c(=O)n1", "note": "[gemcitabine]", "values": [
      {"measurement": "survival (Kaplan-Meier curve)", "setting": "[1]; daily intratumoral doses (Days 7-11 and 21-25) compared to single bolus doses (Day 7 and 21)", "value": "greater survival"},
      {"measurement": "tumor burden, as determined by tumor volume over time", "setting": "[1]; daily intratumoral doses (Days 7-11 and 21-25, each 1/5 of bolus) compared to single bolus doses (Day 7 and 21)", "value": "lower tumor burden"},
      {"measurement": "overall survivability (Kaplan-Meier survival curve)", "setting": "[2]", "value": "greater than the bolus dose group"},
      {"measurement": "tumor burden (tumor volume over time)", "setting": "[2]", "value": "lower tumor burden"}
    ]}
  ]
}
